Data set [1] has as its system SKOV3IP1CIS. As to conditions: 72-hr incubation, Alamar Blue, read-out: IC50 cisplatin; cited from earlier work.
The subject of data set [2] is OVCAR3CIS. The conditions noted are these: 72-hr incubation, Alamar Blue, read-out: IC50 cisplatin; cited from earlier work.
The subject of data set [3] is OV90CIS. The conditions noted are these: 72-hr incubation, Alamar Blue, read-out: IC50 cisplatin; cited from earlier work.
Data set [4] concerns A2780CIS. As to conditions: 72-hr incubation, Alamar Blue, read-out: IC50 cisplatin; cited from earlier work.
Data set [5] concerns A2780CP20. As to conditions: 72-hr incubation, Alamar Blue, read-out: IC50 cisplatin; cited from earlier work.
Data set [6] has as its system OVCAR3. As to conditions: 72-hr incubation, Alamar Blue, read-out: IC50 cisplatin; cited from earlier work.
In data set [7] the test system is OVCAR3CIS cells. Briefly: Cell viability, Alamar blue, siRNA alone or with cisplatin. It counts as cell-based. As to conditions: CIS 2.5 μM, NC-siRNA-transfected OVCAR3CIS cells. On the procedure:
OVCAR3CIS cells (3.0×10^4 cells/mL) or SKOV3ip1CIS (3.0×10^4 cells/mL) were seeded into 12-well plates. […] The next day, 400 cells (OVCAR3CIS) or 1,000 cells (SKOV3ip1CIS) were seeded into 6-well plates and incubated for seven days, fixed and stained with 0.5% crystal violet in methanol. Colonies of at least 50 cells were counted using a light microscope (CKX41: Olympus, Center Valley, PA, USA) with a total magnification of 40x. For cell viability assays, OVCAR3 and OVCAR3CIS (3.0×10^4 cells/mL) or SKOV3ip1and SKOV3ip1CIS (3.5×10^4 cells/mL) were seeded into 96-well plates, and 24 hours later, siRNA transfection was performed as described above. The next day, the transfection mix was replaced with cisplatin (CIS) (2.5 uM final concentration dissolved in regular cell culture media) and after forty-eight hours, the medium was removed, and Alamar blue dye (Invitrogen, Thermo Fisher Scientific, Eugene, OR, USA) was added following the manufacturer's instructions. Optical density (OD) was measured, and percentages of cell viability were calculated after blank OD subtraction. Untreated cells were assessed as 100% cell viability.

Data set [8] has as its system OV90. As to conditions: 72-hr incubation, Alamar Blue, read-out: IC50 cisplatin; cited from earlier work.
Data set [9] deals with SKOV3IP1. The conditions noted are these: 72-hr incubation, Alamar Blue, read-out: IC50 cisplatin; cited from earlier work.
In data set [10] the test system is SKOV3IP1CIS. Briefly: Matrigel transwell invasion assay. The format is cell-based, human. On the procedure:
(§1) Cell invasion was measured using the Matrigel transwell method. OVCAR3CIS (3.0×10^4 cells/mL) or SKOVip1CIS (3.5×10^4 cells/mL) were seeded into 10 cm Petri dishes and transfected with siRNAs. Twenty-four hours later, serum-free matrigel (BD Biosciences CA, USA) was added onto the upper chambers of 24-well plates and incubated at 37° C. for polymerization. Transfected cells were collected and resuspended in serum-free and re-seeded onto the Matrigel-coated chambers. Medium containing 10% FBS was added to the lower area of the wells, and the plates incubated for 48 hours at 37° C. The medium was removed, and cells that invaded through the matrigel fixed and stained using ProtocolHema 3 Stain Set (Fisher Scientific MI, USA). Invaded cells were microscopically counted using a digital camera to capture images at a 20× resolution. The percentage of cell invasion was calculated using the NC-SIRNA condition as 100% cell invasion.

The test system of data set [11] is CASC10. Briefly: RT-qPCR of CASC10 expression after siRNA transfection in SKOV3ip1 cells. It counts as cell-based, human. As to conditions: SKOV3ip1 cells as printed. How it is done:
(§2) SiRNA ON-TARGET plus SMARTpool (a mixture of 4 siRNA as a single tube) and a negative control siRNA (NC-siRNA) (Sigma-Aldrich) were used for transfection studies. CASC10, was targeted by using two siRNAs targeting different regions of the CASC10 RNA (e.g., CASC10-siRNA (1) and CASC10-siRNA (2)). OVCAR3CIS or SKOV3ip1CIS cells were seeded into 12-well plates at 3.0×10^4 cells/mL. The next day, siRNAs were mixed with HiPerfect transfection reagent (Qiagen, Valencia, CA) at a 1:2 ratio (SIRNA: HiPerfect) in serum and antibiotic-free Opti-MEM medium (Gibco) and added to the cells. After twenty-four hours the media was replaced by regular culture media, and cells were cultured and used for further experiments. To assess siRNA transfection efficiency, cells were collected 24 hours after siRNA transfection.
(§3) A custom-made 384-well plate containing pre-designed forward and reverse primers was purchased from Bio-Rad (CA, USA). Total RNA was isolated from OVCAR3 and OVCAR3CIS cells using the GenElute Mammalian Total RNA Mini Kit (Millipore-Sigma, MO, USA) following the manufacturer's instructions. […] Fold-changes and cycle threshold (Ct) values were calculated by the instrument's internal software relative to OVCAR3 cells and normalized to B-actin along with controls for gDNA, PCR reaction, RT reaction, and RNA quality.

In data set [12] the test system is SKOV3ip1CIS cells. Briefly: Colony formation assay after siRNA transfection. It counts as cell-based, human. The conditions noted are these: SKOV3ip1CIS (FIG. 8B). On the procedure: as §2
OVCAR3CIS cells (3.0×10^4 cells/mL) or SKOV3ip1CIS (3.0×10^4 cells/mL) were seeded into 12-well plates. Twenty-four hours later, cells were transfected with 100 nM (final concentration) of each siRNA. […] Colonies of at least 50 cells were counted using a light microscope (CKX41: Olympus, Center Valley, PA, USA) with a total magnification of 40x. […] Optical density (OD) was measured, and percentages of cell viability were calculated after blank OD subtraction. Untreated cells were assessed as 100% cell viability.

In data set [13] the test system is OVCAR3CIS cells. The data set can be described thus: Colony formation assay after siRNA transfection. The format is cell-based. As to conditions: single siRNA, vs NC-siRNA. On the procedure: as §2
OVCAR3CIS cells (3.0×10^4 cells/mL) or SKOV3ip1CIS (3.0×10^4 cells/mL) were seeded into 12-well plates. Twenty-four hours later, cells were transfected with 100 nM (final concentration) of each siRNA. […] Colonies of at least 50 cells were counted using a light microscope (CKX41: Olympus, Center Valley, PA, USA) with a total magnification of 40x. […] Optical density (OD) was measured, and percentages of cell viability were calculated after blank OD subtraction. Untreated cells were assessed as 100% cell viability. […]

Data set [14] has as its system OVCAR3CIS cells. The data set can be described thus: Matrigel transwell invasion assay. It counts as cell-based. The conditions noted are these: vs NC-siRNA. How it is done:
as §1

Data set [15] deals with CASC10. The data set can be described thus: RT-qPCR of CASC10 expression after siRNA transfection in OVCAR3CIS cells. The format is cell-based. As to conditions: vs NC-siRNA. On the procedure: as §2, §3

As to `N.N.[Cl][Pt][Cl]` [cisplatin], the half-inhibitory concentration (IC50) in [1] is 7.3 µM; in [2], 7.5 µM; in data set [3], 7.8 µM; in [4], 4.3 µM; in [5], 20 to 30 µM; in data set [6] it was 2.8 µM. The IC50 in [8] was 3.5 µM; in [9], 3.9 µM. Also, the cell viability result in [7] was “reduced the cell viability”.
As for “CASC10-siRNA (1): siRNA targeting CASC10 RNA, SEQ ID NO 1 and 2: 5′ GCUAUCUGCUUGAUCCCUU(dT)(dT) 3′ / 5′ AAGGGAUCAAGCAGAUAGO(dT)(dT) 3′ (chain 1 GCUAUCUGCUUGAUCCCUUNN; chain 2 AAGGGAUCAAGCAGAUAGCNN; 3' dTdT overhangs, chemistry not fully specified)”, in [10], the “reduction of invasion ability” value was 36%. In [11], the “decrease of CASC10 relative expression” value was 70%. Also, the “reduction in the number of colonies” value in [12] came to 81%; in data set [13] it was 42%. Further, the reduction of invasiveness in data set [14] came out at 42%. The “decrease of CASC10 expression” value in data set [15] is 47%.

The values above are taken from US20250333733A1, “NOVEL TARGETS AGAINST OVARIAN CANCER” (UNIVERSITY OF PUERTO RICO, priority 2022, published 2025).
